In patent publication US20230149537A1, “VACCINES, ADJUVANTS, AND METHODS OF GENERATING AN IMMUNE RESPONSE” (priority 2020, published 2023):

Tests used:
SARS-CoV-2 Spike [1] = test system: SARS-CoV-2 Spike; design: species or system C57BL/6 mice; settings: mouse, in vivo, ip
SARS-CoV-2 Spike [2] = test system: SARS-CoV-2 Spike; design: species or system  mice; settings: mouse, in vivo
T cell = test system: T cell; design: species or system C57BL/6 mice; settings: mouse, in vivo, ip

Compound: CCCCCCCCCCCC(=O)CC(=O)N[C@H](COCCCCCCCCCC)COP(=O)([O-])OCCNC(=O)NCCOP(=O)([O-])OC[C@@H](COCC[C@@H](CCCCCCC)OC(=O)CCCCCCCCCCC)NC(=O)CC(=O)CCCCCCCCCCC.[Na+].[Na+] [Group E6020]
- IgG profile (IgG2/IgG1) (SARS-CoV-2 Spike [1]): significant higher IgG2 than with Alum alone
- IgG1 and IgG2 Ab binding titers (SARS-CoV-2 Spike [2]): increase in IgG2 production
- Th1-type T cell responses (T cell): significantly enhanced Th1-type T cell responses
